# Several values for one entry are separate records, joined by “and”; a condition that tells them apart may be missing. Equal values may be shown once. Read-outs that look alike come from different tables or passages of the source.
# Assays:
# acute leukemia = conditions: patients, phase I acute leukemia study; cited from earlier work
# BRD3(BD2) = target: T1, BRD3(BD2) (Homo sapiens, UniProt Q15059); experiment: HTRF bromodomain selectivity profile; assay type: binding; conditions: Table 3 selectivity profile
# T1 construct: purchased BPS Bioscience
# Procedure: (§1) Compounds were dispensed, with 200 nL per well (1% final DMSO), from a concentration stock of 1 mM in 100% DMSO and with serial DMSO dilutions, using a Mosquito Crystal pipetting robot platform (TTP labtech). […] All HTRF reagents were purchased from CisBio Bioassays and reconstituted according to the supplier protocols. For each assay 14.7 μL of mix 1 (protein+peptide) is added in the assay wells, containing previously dispensed inhibitors, according to the final concentration and buffer described in Table 4, using a Biomek NX MC pipetting robot (Beckman). Then, 5.1 μL of mix 2 (donnor+acceptor) is added. HTRF signals were measured, after a final incubation (overnight at room temperature), using a PHERAstar FS (BMG Labtech) with an excitation filter at 337 nm and fluorescence wavelength measurement at 620 and 665 nm, an integration delay of 60 μs and an integration time of 500 μs. Results were analyzed with a two-wavelengths signal ratio: […] Percentage of inhibition was calculated using the following equation: % inhibition=[(compound signal)−(min signal)]/[(max signal)−(min signal)]*100, where ‘max signal’ is the signal ratio with the compound vehicle alone (DMSO) and ‘min signal’ the signal ratio without peptide. For IC50 measurements, values were normalized and fitted with Prism (GraphPad software) using the following equation: […] Selectivity profiles of bromodomain inhibitors were performed as described in HTRF screen section. […] HTRF detection reagents (EPIgeneous™ Binding Domain kits) were purchased from Cisbio Bioassays and used according to supplier's protocol. GST tagged bromodomain proteins were purchased from BPS Bioscience and histone peptide from Anaspec. [table]
# BRD3(BD1) = target: T2, BRD3(BD1) (Homo sapiens, UniProt Q15059); experiment: HTRF bromodomain selectivity profile; assay type: binding; conditions: Table 3 selectivity profile
# T2 construct: purchased BPS Bioscience
# Procedure: as §1
# BRD2(BD1) = target: T3, BRD2(BD1) (Homo sapiens, UniProt P25440); experiment: HTRF bromodomain selectivity profile; assay type: binding; conditions: Table 3 selectivity profile
# T3 construct: purchased BPS Bioscience
# Procedure: (§2) HTRF assays were performed in white 384 Well Small Volume™ HiBase Polystyrene Microplates (Greiner) with a total working volume of 20 μL. Compounds were dispensed, with 200 nL per well (1% final DMSO), from a concentration stock of 1 mM in 100% DMSO and with serial DMSO dilutions, using a Mosquito Crystal pipetting robot platform (TTP labtech). The IC50 measurements were performed in triplicates (Table 2 and 3). All HTRF reagents were purchased from CisBio Bioassays and reconstituted according to the supplier protocols. For each assay 14.7 μL of mix 1 (protein+peptide) is added in the assay wells, containing previously dispensed inhibitors, according to the final concentration and buffer described in Table 4, using a Biomek NX MC pipetting robot (Beckman). Then, 5.1 μL of mix 2 (donnor+acceptor) is added. HTRF signals were measured, after a final incubation (overnight at room temperature), using a PHERAstar FS (BMG Labtech) with an excitation filter at 337 nm and fluorescence wavelength measurement at 620 and 665 nm, an integration delay of 60 μs and an integration time of 500 μs. Results were analyzed with a two-wavelengths signal ratio: [intensity (665 nm)/intensity (620 nm)]*10^4. Percentage of inhibition was calculated using the following equation: % inhibition=[(compound signal)−(min signal)]/[(max signal)−(min signal)]*100, where ‘max signal’ is the signal ratio with the compound vehicle alone (DMSO) and ‘min signal’ the signal ratio without peptide.
# (§3) Selectivity profiles of bromodomain inhibitors were performed as described in HTRF screen section. […] HTRF detection reagents (EPIgeneous™ Binding Domain kits) were purchased from Cisbio Bioassays and used according to supplier's protocol. GST tagged bromodomain proteins were purchased from BPS Bioscience and histone peptide from Anaspec.
# BRDT(BD1) = target: T4, BRDT(BD1) (Homo sapiens, UniProt Q58F21); experiment: HTRF bromodomain selectivity profile; assay type: binding; conditions: Table 3 selectivity profile
# T4 construct: purchased BPS Bioscience
# Procedure: as §2, §3
# BRD4(BD2) = target: T5, BRD4(BD2) (Homo sapiens, UniProt O60885); experiment: HTRF bromodomain selectivity profile; assay type: binding; conditions: Table 3 selectivity profile
# T5 construct: purchased BPS Bioscience
# Procedure: as §2, §3
# BRD2(BD2) = target: T6, BRD2(BD2) (Homo sapiens, UniProt P25440); experiment: HTRF bromodomain selectivity profile; assay type: binding; conditions: Table 3 selectivity profile
# T6 construct: purchased BPS Bioscience
# Procedure: as §2, §3
# BRD4(BD1) [1] = target: T7, BRD4(BD1) (Homo sapiens, UniProt O60885); experiment: HTRF assay, disruption of bromodomain/histone peptide interaction; assay type: binding; conditions: for LE (Ligand Efficiency): LE = 1.4(−log(IC50)/N), BRD4(BD1)
# T7 construct: a BRD4(BD1) synthetic gene that includes a TEV cleavage site was purchased from LifeTechnology; made in house
# Procedure: as §2
# (§4) For Isothermal Titration Calorimetry (ITC) and crystallogenesis, BRD4(BD1) was produced and purified using a histidine tag affinity chromatography as described by Filipakopoulos et al.9 For these experiments, a pNIC28-BSA4 expression vector containing BRD4(BD1) and a Tobacco Etch Virus (TEV) protease cleavage site have kindly been provided by Stefan Knapp laboratory from the SGC at the University of Oxford. After size exclusion chromatography, the fractions presenting pure BRD4(BD1) after TEV cleavage of the histidine tag were pooled and concentrated to 25 mg/mL for crystallogenesis. For ITC assays, the protein was concentrated up to at 6 mg/mL and the DTT was removed using a buffer exchange column (PD10 from GE healthcare) equilibrated with 10 mM HEPES pH=7.5, 150 mM NaCl. For Homogeneous Time Resolved Fluorimetry (HTRF) experiments, a BRD4(BD1) synthetic gene that includes a TEV cleavage site was purchased from LifeTechnology in a pDONR transport vector before cloning into a pDESTTM15 expression vector for GST affinity purification. Protein production and purification was carried out using similar protocols and buffers as used for the His-BRD4(BD1) system. Purification was carried on GST affinity resin (Thermo Scientific) and reduced glutathione was used for protein release. GST-BRD4(BD1) was further purified by size exclusion chromatography on a Superdex 16/60 Hiload column (GE Healthcare) using 20 mM TRIS pH=8.0, 150 mM NaCl Buffer.
# ATAD2 = target: T8, ATAD2 (Homo sapiens, UniProt Q6PL18); experiment: HTRF bromodomain selectivity profile, non-BET control; assay type: binding; conditions: non-BET family member bromodomain control
# T8 construct: GST tagged bromodomain proteins were purchased from BPS Bioscience; purchased BPS Bioscience
# T8 sequence (Q6PL18 980-1092 limits assumed): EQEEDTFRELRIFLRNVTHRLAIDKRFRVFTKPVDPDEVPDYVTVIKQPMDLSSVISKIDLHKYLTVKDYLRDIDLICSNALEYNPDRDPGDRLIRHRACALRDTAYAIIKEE
# Procedure: as §2, §3
# BET bromodomains = experiment: Selectivity profile across BET bromodomains (HTRF); assay type: binding; conditions: in words
# Procedure: as §3
# BRD4(BD1) [2] = target: T7, BRD4(BD1); experiment: Isothermal Titration Calorimetry; assay type: binding
# Source text: as §4
# ITC was used to evaluate the thermodynamics parameters of the binding between BRD4(BD1) and the selected compounds, using ITC conditions previously described by Filippakopoulos et al.8 Purified BRD4(BD1) was extensively dialyzed in the ITC buffer containing 10 mM Hepes pH=7.5 and 150 mM NaCl. Compounds were diluted directly in the last protein dialysate prior to experiments. Titrations were carried out on a MicroCal ITC200 microcalorimeter (GE Healthcare, Piscataway, N.J.). Each experiment was designed using a titrant concentration (protein in the syringe) set 10 to 15 times the analyte concentration (compound in the cell generally between 10 and 35 μM) and using 13 injections at 35° C. A first small injection (generally 0.2 μL) was included in the titration protocol in order to remove air bubbles trapped in the syringe prior titration. Raw data were scaled after setting the zero to the titration saturation heat value. Integrated raw ITC data were fitted to a one site non-linear least squares fit model using the MicroCal Origin plugin as implemented in Origin 7 (Origin Lab). Finally, ΔG and TΔS values were calculated from the fitted ΔH and KA values using the equations ΔG=−R.T. ln KA and ΔG=ΔH−TΔS.
# [3] = test system: BD2 domain of BRD2 and BRD3; conditions: cited from earlier work
# [4] = HTRF, mean ± SD of three experiments, Table 2, read-out: IC50 μM, effect on BRD4(BD1) activity
# [5] = HTRF, Table 1′, TABLE 2, read-out: BRD4(BD1) IC50
# [6] = Table 3 selectivity profile, mean ± SD of three experiments, read-out: IC50 (μM) BRD4(BD1)
# T6 sequence (P25440 344-453 limits assumed): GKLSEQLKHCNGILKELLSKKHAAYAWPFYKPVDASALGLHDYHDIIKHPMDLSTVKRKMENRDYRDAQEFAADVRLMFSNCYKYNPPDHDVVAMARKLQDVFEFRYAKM
# T1 sequence (Q15059 306-415 limits assumed): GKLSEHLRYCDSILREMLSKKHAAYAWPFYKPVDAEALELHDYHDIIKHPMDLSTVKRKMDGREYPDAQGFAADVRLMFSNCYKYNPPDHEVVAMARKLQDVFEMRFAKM
# T3 sequence (P25440 74-180 limits assumed): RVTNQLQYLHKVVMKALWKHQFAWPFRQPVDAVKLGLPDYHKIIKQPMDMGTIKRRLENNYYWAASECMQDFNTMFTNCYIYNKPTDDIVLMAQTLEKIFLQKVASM
# T2 sequence (Q15059 34-140 limits assumed): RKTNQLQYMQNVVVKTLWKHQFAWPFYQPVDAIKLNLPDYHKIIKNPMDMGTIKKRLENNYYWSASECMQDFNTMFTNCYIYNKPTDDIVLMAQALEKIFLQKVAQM
IC50 (BRD3(BD2)) [µM],IC50 (BRD3(BD1)) [µM],IC50 (BRD2(BD1)) [µM],IC50 (BRDT(BD1)) [µM],IC50 (BRD4(BD2)) [µM],IC50 (BRD2(BD2)) [µM],IC50 (BRD4(BD1) [1]; [4]) [µM],fold decrease in potency as compared to 7a (BRD4(BD1) [1]; HTRF IC50 BRD4(BD1)) [fold],SMILES,clinical response (acute leukemia),IC50 (ATAD2) [µM],selectivity profile among BET bromodomains (BET bromodomains),IC50 (BRD4(BD1) [1]; [5]),LE (Ligand Efficiency) (BRD4(BD1) [1]),IC50 (BRD4(BD1) [1]; [6]) [µM],"enthalpy change (BRD4(BD1) [2]; ITC, BRD4(BD1)) [kcal/mol]",Kd (BRD4(BD1) [2]; Isothermal Titration Calorimetry) [µM],fold increased potency (7a vs 6a) (BRD4(BD1) [1]; HTRF IC50 BRD4(BD1)) [fold],bromodomain binding preference [3]
,,,,,,,,"Cc1sc2c(c1C)C(c1ccc(Cl)cc1)=N[C@@H](CC(=O)Nc1ccc(O)cc1)c1nnc(C)n1-2 [OTX015, (6S)-4-(4-chlorophenyl)-N-(4-hydroxyphenyl)-2,3,9-trimethyl-6H-thieno[3,2-f][1,2,4]triazolo[4,3-a][1,4]diazepine-6-acetamide]","induced remissions, including complete remission in two patients with refractory disease",,,,,,,,,
23.9 ± 1.4,40.7 ± 2.2,30.1 ± 1.3,65.3 ± 8.1,> 100,> 100,12.6,,CCn1c(CSc2nc3nc(C)cc(C)n3n2)nc2c1c(=O)[nH]c(=O)n2Cc1ccc(Cl)cc1 [Compound 25a],,> 100,,,,,,,,
,31.7 ± 1.1,30 ± 0.9,,,,26.4,10,"CCn1c(CSc2n[nH]c(N)n2)nc2c1c(=O)[nH]c(=O)n2Cc1ccc(Cl)cc1 [Compound 22a, 8-(5-Amino-1H-[1,2,4]triazol-3-ylsulfanylmethyl)-3-(4-chlorobenzyl)-7-ethyl-3,7-dihydro-purine-2,6-dione]",,,shift of selectivity towards BET-BD1 domains,26.4 µM,0.17,26.4 ± 0.7,,,,
2.1 ± 0.5,43.5 ± 7.1,31.9 ± 0.5,42.5 ± 3.9,> 100,9.5 ± 0.5,7.9,,CCc1cc(CC)n2nc(SCc3nc4c(c(=O)[nH]c(=O)n4Cc4ccc(Cl)cc4)n3CC)nc2n1 [Compound 26a],,56.4 ± 7.9,,,,,,,,
,,,,,,,,"COc1cc(OC)c2c(=O)[nH]c(-c3cc(C)c(OCCO)c(C)c3)nc2c1 [RVX-208, 2-[4-(2-hydroxyethoxy)-3,5-dimethylphenyl]-5,7-dimethoxy-4(3H)-quinazolinone]",,,,,,,,,,binds preferentially to the BD2 domain of BRD2 and BRD3
4,14,> 100,27,5,7,9,,Cn1cnc2c1c(=O)[nH]c(=O)n2Cc1ccc(Cl)cc1 [Compound 4b],,,,,,,,,,

SMILES,IC50 (BRD3(BD2)) [µM],IC50 (BRD3(BD1)) [µM],IC50 (BRD2(BD1)) [µM],IC50 (BRDT(BD1)) [µM],IC50 (BRD4(BD2)) [µM],IC50 (BRD2(BD2)) [µM],IC50 (BRD4(BD1) [1]; [4]) [µM],fold decrease in potency as compared to 7a (BRD4(BD1) [1]; HTRF IC50 BRD4(BD1)) [fold],clinical response (acute leukemia),IC50 (ATAD2) [µM],selectivity profile among BET bromodomains (BET bromodomains),IC50 (BRD4(BD1) [1]; [5]),LE (Ligand Efficiency) (BRD4(BD1) [1]),IC50 (BRD4(BD1) [1]; [6]) [µM],"enthalpy change (BRD4(BD1) [2]; ITC, BRD4(BD1)) [kcal/mol]",Kd (BRD4(BD1) [2]; Isothermal Titration Calorimetry) [µM],fold increased potency (7a vs 6a) (BRD4(BD1) [1]; HTRF IC50 BRD4(BD1)) [fold],bromodomain binding preference [3]
"CCCCc1c(C)nc2nc(SCc3nc4c(c(=O)[nH]c(=O)n4Cc4ccc(Cl)cc4)n3CC)nn2c1C [Compound 27b, 8-(6-Butyl-5,7-dimethyl-[1,2,4]triazolo[1,5-a]pyrimidin-2-ylsulfanylmethyl)-3-(4-chlorobenzyl)-7-ethyl-3,7-dihydro-purine-2,6-dione]",,,,,,,20.4,,,,selective towards BRD4(BD1),20 µM and 20.4 µM,0.15,20.4 ± 3.6,,,,
"CCCCn1c(=O)[nH]c(=O)c2c1ncn2CC [Compound 6a, 3-Butyl-7-ethylxanthine]",5.8 ± 0.2,4.8 ± 0.3,18.8 ± 0.7,7.9 ± 0.4,8.1 ± 0.3,6.6 ± 0.3,13,,,> 100,pan-BET inhibition profile,13 ± 0.3 µM,0.40,13 ± 0.3,,,,
CCn1cnc2c1c(=O)[nH]c(=O)n2Cc1ccc(Cl)cc1 [Compound 7a],1.8 ± 0.2,1.8 ± 1.1,4.7 ± 0.1,2.3 ± 0.2,1.9 ± 0.1,1.6 ± 0.2,2.6,,,> 100,pan-BET inhibition profile,2.6 µM,0.37,2.6 ± 0.1,-6.3,1.8,2,
